Experiment [1] relates to TC1. The experiment is described as follows: Antitumor activity against HPV16 associated TC1 cells xenografted C57BL/6(H2b) mouse at 40 ug. In kind it is functional.
The test system of experiment [2] is TC1. The experiment is described as follows: Antitumor activity against HPV16 associated TC1 cells xenografted C57BL/6(H2b) mouse.

Active and inactive are the calls of the source. The calls are words filed in the database; no cut-off is given here. *1 amine or outer side, *2 acyl side, *3 side chain or, on linkers, in order; H or OH if unused. Where a SMILES comes first, the peptide text is derived from it. [ ]: non-standard residue; d: D form. The star is where a group is joined. ξ: configuration not given here. X3 = CC(=O)OC[C@@H]1O[C@H](N*)[C@H](OC(C)=O)[C@H](OC(C)=O)[C@H]1OC(C)=O; X2 = OC[C@@H]1O[C@H](N*)[C@@H](O)[C@H](O)[C@H]1O; X1 = OC[C@@H]1O[C@H](N*)[C@H](O)[C@H](O)[C@H]1O; Ile(3ξ) = CCC(C)[C@H](N)C(=O)O; Thr(3ξ) = CC(O)[C@H](N)C(=O)O; Suc = O=C(CCC(=O)[*:2])[*:1]

Consider `CCC(C)[C@H](NC(=O)[C@H](CC(N)=O)NC(=O)[C@H](Cc1ccc(O)cc1)NC(=O)[C@H](Cc1cnc[nH]1)NC(=O)[C@H](C)NC(=O)[C@H](CCCNC(=N)N)NC(=O)[C@H](CC(=O)O)NC(=O)[C@@H]1CCCN1C(=O)[C@H](CCC(=O)O)NC(=O)[C@H](C)NC(=O)[C@H](CCC(N)=O)NC(=O)CCC(=O)N[C@H]1O[C@@H](COC(C)=O)[C@H](OC(C)=O)[C@@H](OC(C)=O)[C@H]1OC(C)=O)C(=O)N[C@H](C(=O)N[C@H](C(=O)N[C@@H](Cc1ccccc1)C(=O)N[C@@H](CS)C(=O)N[C@@H](CS)C(=O)N[C@@H](CCCCN)C(=O)N[C@@H](CS)C(=O)N[C@@H](CC(=O)O)C(N)=O)C(C)O)C(C)C` (some centres undefined) ({X3-Suc}-QAEPDRAHYN[Ile(3ξ)]V[Thr(3ξ)]FCCKCD-NH2), for which the outcome with TC1 [1] was inactive.

Regarding `CCC(C)[C@H](NC(=O)[C@H](CC(N)=O)NC(=O)[C@H](Cc1ccc(O)cc1)NC(=O)[C@H](Cc1cnc[nH]1)NC(=O)[C@H](C)NC(=O)[C@H](CCCNC(=N)N)NC(=O)[C@H](CC(=O)O)NC(=O)[C@@H]1CCCN1C(=O)[C@H](CCC(=O)O)NC(=O)[C@H](C)NC(=O)[C@H](CCC(N)=O)NC(=O)CCC(=O)N[C@H]1O[C@@H](CO)[C@H](O)[C@@H](O)[C@H]1O)C(=O)N[C@H](C(=O)N[C@H](C(=O)N[C@@H](Cc1ccccc1)C(=O)N[C@@H](CS)C(=O)N[C@@H](CS)C(=O)N[C@@H](CCCCN)C(=O)N[C@@H](CS)C(=O)N[C@@H](CC(=O)O)C(N)=O)C(C)O)C(C)C` (some centres undefined) ({X1-Suc}-QAEPDRAHYN[Ile(3ξ)]V[Thr(3ξ)]FCCKCD-NH2), the outcome in the experiment on TC1 [1] was inactive.

As to `CC[C@H](C)[C@H](NC(=O)[C@@H](NC(=O)[C@@H](N)CO)[C@@H](C)CC)C(=O)N[C@@H](CC(N)=O)C(=O)N[C@@H](Cc1ccccc1)C(=O)N[C@@H](CCC(=O)O)C(=O)N[C@@H](CCCCN)C(=O)N[C@@H](CC(C)C)C(=O)O`, in the experiment with TC1 [2], the outcome was inactive.

As for `CCC(C)[C@H](NC(=O)[C@H](CC(N)=O)NC(=O)[C@H](Cc1ccc(O)cc1)NC(=O)[C@H](Cc1cnc[nH]1)NC(=O)[C@H](C)NC(=O)[C@H](CCCNC(=N)N)NC(=O)[C@H](CC(=O)O)NC(=O)[C@@H]1CCCN1C(=O)[C@H](CCC(=O)O)NC(=O)[C@H](C)NC(=O)[C@H](CCC(N)=O)NC(=O)CCC(=O)N[C@H]1O[C@@H](CO)[C@H](O)[C@@H](O)[C@@H]1O)C(=O)N[C@H](C(=O)N[C@H](C(=O)N[C@@H](Cc1ccccc1)C(=O)N[C@@H](CS)C(=O)N[C@@H](CS)C(=O)N[C@@H](CCCCN)C(=O)N[C@@H](CS)C(=O)N[C@@H](CC(=O)O)C(N)=O)C(C)O)C(C)C` (some centres undefined) ({X2-Suc}-QAEPDRAHYN[Ile(3ξ)]V[Thr(3ξ)]FCCKCD-NH2), in the experiment with TC1 [1], the outcome was inactive.
